According to ChEMBL document CHEMBL1134065, “Structure-Activity study of retinoid agonists bearing substituted dicarba-closo-dodecaborane. Relation between retinoidal activity and conformation of two aromatic nuclei” (2001):

How the values were obtained:
HL-60 [1] = assay: HL-60 differentiation-inducing activity at a dose of 10e-10 M; format: functional, Homo sapiens
HL-60 [2] = assay: HL-60 differentiation-inducing activity at a dose of 10e-8 M; format: functional, Homo sapiens
HL-60 [3] = assay: HL-60 differentiation-inducing activity at a dose of 10e-9.5 M; format: functional, Homo sapiens
HL-60 [4] = assay: HL-60 differentiation-inducing activity at a dose of 10e-9 M; format: functional, Homo sapiens
HL-60 [5] = assay: HL-60 differentiation-inducing activity at a dose of 10e-7 M; format: functional, Homo sapiens
[6] = molecular target: T1, Retinoic acid receptor gamma (Homo sapiens) (UniProt P13631); assay: Agonistic activity on Retinoic acid receptor gamma by transcriptional activation in COS-1 cells incubated at 10e-6 M; format: functional, cell-based
T1 sequence (whole entry): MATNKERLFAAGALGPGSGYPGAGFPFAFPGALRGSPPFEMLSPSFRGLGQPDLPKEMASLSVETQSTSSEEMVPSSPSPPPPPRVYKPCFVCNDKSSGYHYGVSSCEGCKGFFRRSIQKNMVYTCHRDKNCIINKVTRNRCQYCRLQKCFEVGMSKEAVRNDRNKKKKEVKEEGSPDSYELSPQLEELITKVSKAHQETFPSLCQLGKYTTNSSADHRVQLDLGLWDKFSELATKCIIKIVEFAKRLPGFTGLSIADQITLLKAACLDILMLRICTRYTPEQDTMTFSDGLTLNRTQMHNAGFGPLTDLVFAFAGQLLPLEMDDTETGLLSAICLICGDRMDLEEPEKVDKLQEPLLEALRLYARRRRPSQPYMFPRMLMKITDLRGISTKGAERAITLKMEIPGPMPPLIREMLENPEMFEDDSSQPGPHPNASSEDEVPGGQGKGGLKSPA

[7] = molecular target: T1, Retinoic acid receptor gamma (Homo sapiens); assay: Agonistic activity on Retinoic acid receptor gamma by transcriptional activation in COS-1 cells incubated at 10e-7 M; format: functional, cell-based
[8] = molecular target: T1, Retinoic acid receptor gamma (Homo sapiens); assay: Agonistic activity on Retinoic acid receptor gamma by transcriptional activation in COS-1 cells incubated at 10e-8 M; format: functional, cell-based
[9] = molecular target: T1, Retinoic acid receptor gamma (Homo sapiens); assay: Agonistic activity on Retinoic acid receptor gamma by transcriptional activation in COS-1 cells incubated at 10e-9 M; format: functional, cell-based

| Relative luciferase response [6] | Relative luciferase response [7] | Relative luciferase response [8] | Relative luciferase response [9] | Compound | Differentiated cells (HL-60 [1]) [%] | Differentiated cells (HL-60 [2]) [%] | Differentiated cells (HL-60 [3]) [%] | Differentiated cells (HL-60 [4]) [%] | Differentiated cells (HL-60 [5]) [%] |
| --- | --- | --- | --- | --- | --- | --- | --- | --- | --- |
|  |  |  |  | CC1(C)CCC(C)(C)c2cc(NC(=O)c3ccc(C(=O)O)cc3)ccc21 [TAMIBAROTENE] | ~5 | ~85 | ~40 | ~75 |  |
| 30 | 14 | 12 | 6 | CC1=C(/C=C/C(C)=C/C=C/C(C)=C/C(=O)O)C(C)(C)CCC1 [TRETINOIN] |  | ~70 |  | ~2 | ~85 |
